In patent US20130296434A1, “FORMULATIONS AND METHODS FOR TREATING AMYLOIDOSIS” (Kiacta Sarl, priority 2005, published 2013):
Like-named read-outs stand apart in the source and are kept apart here.

Experiments:
[1] = test system: subjects having secondary (AA) amyloidosis; test: Randomized, double-blind, placebo-controlled 24-month efficacy and safety study of PDS in secondary (AA) amyloidosis; type: in vivo, human
Method: A multicenter, multinational, randomized, double-blind, placebo-controlled, and parallel-design study to assess the efficacy and safety of 1,3-propanedisulfonic acid disodium salt (PDS) in subjects having secondary (AA) amyloidosis is conducted. […] If ClCr decreases or increases to the next lower or higher range level, the dose regimen is adjusted accordingly. Subject medication is administered orally (capsule). Each patient is evaluated on 16 occasions, including on-site visits at months 0 (baseline), 1, 4, 8, 12, 16, 20 and 24.
The volume of urine is recorded in the case report form at study site and an aliquot of urine is sent to the central laboratory for determination of urinary creatinine. A blood sample is collected to measure serum creatinine. The creatinine clearance (ClCr) is calculated using the following formula and recorded in the case report form: […]
The creatinine clearance normalized for body surface area is calculated by dividing the creatinine clearance by the body surface area.
Subjects are classified into three categories based on a composite assessment of renal function at the end of the 24 month treatment period compared to baseline. […] Subjects are classified as “improved” if the following clinical milestones of improvement are met: ≧50% increase in ClCr and no clinical milestones of worsening. Subjects are classified as “stable” if none of the clinical milestones of worsening or improvement are met.
All subjects are categorized according to the evolution of their disease (“worse”, “stable”, or “improved”). This constitutes the primary efficacy endpoint for the study and is analyzed in the Intent-to-Treat (ITT) population according to two pre-specified statistical methodologies: 1) the Cochran-Mantel-Haenszel row mean scores test (CMH test) to compare the percentage of subjects who reach each category at the end of the study in comparison to their status at Baseline, and 2) a proportional hazards regression model (Cox analysis) to compare between treatment groups both the number of first “worse” events, as well as when they occur, thus making more use of all available data. Both methodologies are adjusted for the stratification of nephrotic status at Baseline (nephrotic vs non-nephrotic) as pre-specified.
The primary efficacy endpoint is a composite assessment of clinical improvement/worsening of renal function. At the end of the study, the subjects are classified into three categories, “Worse” and death (all causes), “Stable”, or “Improved”. […] The subjects are classified as “stable” if none of the clinical milestones of worsening or improvement are met. […] The term “End of Study” is defined as Month 24 for subjects who completed the study and as the last available measurement for the subjects who discontinued early.
The secondary efficacy endpoints are an assessment of clinical improvement/worsening of both renal and gastrointestinal functions. At the end of the study, subjects are classified into three categories based on their condition: worse, stable, or improved.
This parameter will be normalized for body surface area and the least-squares estimate of the within-subject slope will be calculated using all available creatinine clearance measurements. Although the study is for 2 years, the slope will be expressed as an annual rate of change.
Change from baseline to End of Study in Proteinuria and Creatinine Clearance will be analyzed as a secondary efficacy endpoint. The End of Study is defined as Month 24 for subjects who completed and as the last available visit for subjects who discontinued early. At Screening, proteinuria, creatinine clearance, and serum creatinine are to be collected from two distinct assessments which are to have been at least 1 week apart and within 3 months prior to study entry (Baseline visit). For the creatinine clearance parameter, the normalized value will be used.

[2] = Pharmacokinetics of PDS after single and multiple oral administration in AA amyloidosis patients; type: in vivo; details: human, plasma; for AUC(0-t) / Cmax / half-life: po; for half-life: multiple dose oral administration
Excerpt: In the following examples, terms are as defined below. The pharmacokinetic parameters were derived by non-compartmental analysis using WinNonlin® (Pharsight Corp., Mountain View, Calif., USA). • Cmax—the maximum observed plasma concentration. • Tmax—the time of occurrence of Cmax. • AUC0-t—the area under the plasma concentration versus time curve from time zero to the last sampling time at which concentrations were at or above the limit of quantification, calculated by the linear trapezoidal rule. • AUC∞—the area under the plasma concentrations versus time curve from time zero to infinity, calculated from AUC0-t+(Clast/λz), where Clast is the last observed quantifiable concentration and λz is the apparent terminal rate constant. • t1/2 the apparent terminal half-life, calculated from ln 2/λz
The safety, efficacy and pharmacokinetics of PDS after single and multiple oral administration in subjects with AA amyloidosis is determined. This is a multicenter, multinational, randomized, double-blind, placebo-controlled, and parallel-design study to assess the pharmacokinetic profile of single and repeated doses of PDS. Dosing depends on the severity or renal impairment in a subject: subjects having creatinine clearance (ClCr)>80 mL/min receive 1200 mg BID; for ClCr between 30 and 80 mL/min, the subject receives 800 mg BID; and for ClCr between 20 and 30 mL/min, the subject receives 400 mg BID. If ClCr decreases to the next lower range level, the dose regimen is adjusted accordingly. PDS is administered as a single oral dose for a subset of AA amyloidosis patients on Month 0 and 24 visits. Following the single administration on Month 0, PDS is administered twice daily for 24 months. Blood samples are collected through 24 hours after the doses on Month 0 and 24, and through 8 hours after the doses on Month 4, 8, 12 visits. Plasma concentrations of PDS are determined using validated HPLC methods. Following multiple dose oral administration of PDS, the range of accumulation across subjects is 1.75 to 3.44. Based on the accumulation factor, the mean T1/2 calculated is 15 hours with a range of 10 to 24 hours.

[3] = End of the Study, compared to placebo
[4] = composite renal assessment at end of 24 month treatment, 400-1200 mg BID by ClCr, p value=0.06

Q: What does the source list for `O=S(=O)([O-])CCCS(=O)(=O)[O-].[Na+].[Na+]` [PDS, 1,3-propanedisulfonic acid, disodium salt]?
A: mean difference in slope of creatinine clearance, treated vs. placebo ([1]; End of the Study): 4.7 mL/min/1.73 m^2/year; median time to the first worse event ([1]; End of the Study, PDS treated subjects): 14.5 months; reduction in the rate of loss of renal function (slope of creatinine clearance over time) ([1]; End of the Study, PDS-treated vs placebo): 30.1%; reduction of risk of dialysis/ESRD [1, 3]: 46%; reduction of risk of doubling of serum creatinine [1, 3]: 59%; reduction of risk of ≧50% decrease in creatinine clearance [1, 3]: 52%; median time to dialysis, longer than placebo ([1]; End of the Study, patients progressing to dialysis): 5.3 months; median time to doubling of serum creatinine, longer than placebo ([1]; End of the Study, patients with a doubling of SCr): 3.6 months; median time to at least a 50% decrease in creatinine clearance, longer than placebo ([1]; End of the Study, patients with a ≧50% decrease in CrCl): 4.4 months; risk of any worse event of renal decline or all-cause mortality, relative to the risk for placebo ([1]; End of the Study, printed as reduction to this % of the risk for placebo): 42%; median time to the first worse event, longer than placebo ([1]; End of the Study, treated vs placebo): 6.4 months; creatinine clearance, Change from End of Study to Baseline, Median ([1]; PDS group N = 89, n 85): −11.35 mL/min/1.73 m^2; slope of creatinine clearance normalized for body surface area, Mean (S.E.) ([1]; PDS group N = 89, n 85, annual rate of change): −10.9 (5.1) mL/min/1.73 m^2/year; slope of creatinine clearance normalized for body surface area, Median ([1]; PDS group N = 89, n 85, annual rate of change, P-value vs placebo 0.025): −5.9 mL/min/1.73 m^2/year; creatinine clearance, Change from End of Study to Baseline, Mean (S.E.) ([1]; PDS group N = 89, n 85, p-value vs placebo 0.058): −14.68 (4.19) mL/min/1.73 m^2; fewer subjects classified as worse compared to placebo [1, 4]: 13.4%; more subjects stable or improved compared to placebo [1, 4]: 13.4%; estimated difference in CrCl change, PDS vs placebo ([1]; end of the study): 7.7 mL/min/1.73 m^2; mean difference in CrCl (baseline to end of study) ([1]; end of the study, PDS treated subjects): −14.7±4.2 mL/min/1.73 m^2; Tmax ([2]; Dose 400 (mg BID), Month 0 single oral dose, n = 2, mean): 3 h; Tmax ([2]; Dose 400 (mg BID), Month 24 repeated oral doses, n = 3, mean): 1.83 h; Tmax ([2]; Dose 800 (mg BID), Month 0 single oral dose, n = 5, mean): 2.95 h; Tmax ([2]; Dose 800 (mg BID), Month 24 repeated oral doses, n = 4, mean): 1.85 h; Tmax ([2]; Dose 1200 (mg BID), Month 0 single oral dose, n = 4, mean): 0.69 h; Tmax ([2]; Dose 1200 (mg BID), Month 24 repeated oral doses, n = 1): 0.68 h; AUC(0-t) ([2]; 400 mg BID, Month 24 repeated oral doses, n = 3, mean, read-out: AUC(0-12)): 17600 ng·h/mL; AUC(0-t) ([2]; 400 mg BID, Month 24 repeated oral doses, n = 3, mean, read-out: AUC(0-tlast)): 25700 ng·h/mL; AUC(0-t) ([2]; 400 mg, Dose 400 (mg BID), Month 0 single oral dose, n = 2, mean, read-out: AUC(0-12)): 7410 ng·h/mL; AUC(0-t) ([2]; 400 mg, Dose 400 (mg BID), Month 0 single oral dose, n = 2, mean, read-out: AUC(0-tlast)): 11700 ng·h/mL; Cmax ([2]; 400 mg, Dose 400 (mg BID), Month 24 repeated oral doses, n = 3, mean): 2160 ng/mL; Cmax ([2]; 400 mg, Dose 400 (mg BID, ClCr 20-30 mL/min), Month 0 single oral dose, n = 2, mean): 841 ng/mL; Cmax ([2]; 800 mg BID, Month 24 repeated oral doses, n = 4, mean): 1900 ng/mL; AUC(0-t) ([2]; 800 mg BID, Month 24 repeated oral doses, n = 4, mean, read-out: AUC(0-12)): 13700 ng·h/mL; AUC(0-t) ([2]; 800 mg BID, Month 24 repeated oral doses, n = 4, mean, read-out: AUC(0-tlast)): 21200 ng·h/mL; AUC(0-t) ([2]; 800 mg, Dose 800 (mg BID), Month 0 single oral dose, n = 5, mean, read-out: AUC(0-12)): 5950 ng·h/mL; AUC(0-t) ([2]; 800 mg, Dose 800 (mg BID), Month 0 single oral dose, n = 5, mean, read-out: AUC(0-tlast)): 9810 ng·h/mL; Cmax ([2]; 800 mg, Dose 800 (mg BID, ClCr 30-80 mL/min), Month 0 single oral dose, n = 5, mean): 812 ng/mL; Cmax ([2]; 1200 mg BID, Month 24 repeated oral doses, n = 1): 637 ng/mL; AUC(0-t) ([2]; 1200 mg BID, Month 24 repeated oral doses, n = 1, read-out: AUC(0-12)): 4930 ng·h/mL; AUC(0-t) ([2]; 1200 mg BID, Month 24 repeated oral doses, n = 1, read-out: AUC(0-tlast)): 9140 ng·h/mL; AUC(0-t) ([2]; 1200 mg, Dose 1200 (mg BID), Month 0 single oral dose, n = 4, mean, read-out: AUC(0-12)): 4210 ng·h/mL; AUC(0-t) ([2]; 1200 mg, Dose 1200 (mg BID), Month 0 single oral dose, n = 4, mean, read-out: AUC(0-tlast)): 5630 ng·h/mL; Cmax ([2]; 1200 mg, Dose 1200 (mg BID, ClCr >80 mL/min), Month 0 single oral dose, n = 4, mean): 867 ng/mL; half-life ([2]; read-out: mean T1/2 calculated based on the accumulation factor (converted)): 15 h; half-life ([2]; read-out: range of T1/2 calculated based on the accumulation factor): 10 to 24 h
